Laboratory results: patent publication US20230000870A1, “METHODS OF TREATING CANCER IN BIOMARKER-IDENTIFIED PATIENTS WITH INHIBITORS OF CYCLIN-DEPENDENT KINASE 7 (CDK7)” (Syros Pharmaceuticals, Inc., priority 2019, published 2023)

Legend:
CDK2/Cyclin E1 complex = CDK2/Cyclin E1 complex (Homo sapiens, UniProt P24941); experiment: CDK2 kinase inhibition assay (Caliper/LabChip EZ Reader); format: biochemical; conditions: CDK2/Cyclin E1 0.5 nM, ATP 2 mM, 35 min at 27° C.
How it was run: (§1)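 Caliper/LabChip mobility-shift kinase assays at 27° C. CDK9/Cyclin T1 8 nM with 2 μM 5-FAM-CDK9tide, 10 mM MgCl2, 15 min; CDK12/Cyclin K 50 nM with 5-FAM-CDK9tide 2 μM, 2 mM MgCl2, 3 hr; CDK2/Cyclin E1 0.5 nM with 5-FAM-CDK7tide 2 μM, 2 mM MgCl2, 35 min; CDK7 35 min.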

[1] = target: CDK7/Cyclin H/MAT1 complex (Homo sapiens, UniProt P50613); experiment: CDK7 kinase inhibition assay (Caliper/LabChip EZ Reader); format: biochemical; conditions: CDK7/Cyclin H/MAT1 6 nM, ATP 2 mM, 35 min at 27° C.
CDK7/Cyclin H/MAT1 complex, sequence (P50613 whole entry): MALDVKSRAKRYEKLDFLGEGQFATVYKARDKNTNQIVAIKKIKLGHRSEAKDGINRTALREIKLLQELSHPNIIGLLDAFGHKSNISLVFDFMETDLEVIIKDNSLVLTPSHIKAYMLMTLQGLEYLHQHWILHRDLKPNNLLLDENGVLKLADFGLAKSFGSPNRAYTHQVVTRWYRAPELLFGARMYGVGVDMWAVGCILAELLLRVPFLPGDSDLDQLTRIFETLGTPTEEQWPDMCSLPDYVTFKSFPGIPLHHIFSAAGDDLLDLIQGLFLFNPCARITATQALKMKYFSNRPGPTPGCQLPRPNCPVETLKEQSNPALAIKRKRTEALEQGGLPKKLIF
CDK7/Cyclin H/MAT1 complex, sequence (P51946 whole entry partner): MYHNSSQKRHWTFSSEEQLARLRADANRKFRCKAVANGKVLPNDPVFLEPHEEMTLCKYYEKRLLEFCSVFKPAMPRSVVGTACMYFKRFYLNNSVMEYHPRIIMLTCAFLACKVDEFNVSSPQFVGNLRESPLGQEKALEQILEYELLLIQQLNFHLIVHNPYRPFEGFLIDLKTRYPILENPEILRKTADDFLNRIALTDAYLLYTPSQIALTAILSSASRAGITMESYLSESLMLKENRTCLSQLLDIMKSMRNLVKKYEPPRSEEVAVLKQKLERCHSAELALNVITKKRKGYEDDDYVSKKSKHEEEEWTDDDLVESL
CDK7/Cyclin H/MAT1 complex, sequence (P51948 whole entry partner): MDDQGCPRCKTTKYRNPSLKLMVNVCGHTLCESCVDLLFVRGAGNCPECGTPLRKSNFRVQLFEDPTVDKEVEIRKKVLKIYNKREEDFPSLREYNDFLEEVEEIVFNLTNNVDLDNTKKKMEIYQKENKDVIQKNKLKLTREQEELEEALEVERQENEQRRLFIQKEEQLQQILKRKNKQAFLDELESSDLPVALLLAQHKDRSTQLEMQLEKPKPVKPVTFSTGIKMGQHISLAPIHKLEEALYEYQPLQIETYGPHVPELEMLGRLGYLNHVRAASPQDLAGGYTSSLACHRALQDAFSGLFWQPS
How it was run: as §1

CDK9/Cyclin T1 complex = CDK9/Cyclin T1 complex (Homo sapiens, UniProt P50750); experiment: CDK9 kinase inhibition assay (Caliper/LabChip EZ Reader); format: biochemical; conditions: CDK9/Cyclin T1 8 nM, ATP 2 mM, 15 min at 27° C.
CDK9/Cyclin T1 complex, sequence (P50750 whole entry): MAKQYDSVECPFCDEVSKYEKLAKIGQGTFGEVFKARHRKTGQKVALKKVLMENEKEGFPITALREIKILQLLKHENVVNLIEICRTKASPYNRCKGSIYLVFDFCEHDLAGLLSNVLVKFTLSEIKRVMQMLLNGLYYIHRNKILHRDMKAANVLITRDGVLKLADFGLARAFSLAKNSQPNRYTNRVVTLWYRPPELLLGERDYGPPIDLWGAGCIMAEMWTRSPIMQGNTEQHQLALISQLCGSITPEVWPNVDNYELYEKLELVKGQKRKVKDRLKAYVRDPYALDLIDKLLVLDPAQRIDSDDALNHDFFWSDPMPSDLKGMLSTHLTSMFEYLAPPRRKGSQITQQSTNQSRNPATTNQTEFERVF
CDK9/Cyclin T1 complex, sequence (O60563 whole entry partner): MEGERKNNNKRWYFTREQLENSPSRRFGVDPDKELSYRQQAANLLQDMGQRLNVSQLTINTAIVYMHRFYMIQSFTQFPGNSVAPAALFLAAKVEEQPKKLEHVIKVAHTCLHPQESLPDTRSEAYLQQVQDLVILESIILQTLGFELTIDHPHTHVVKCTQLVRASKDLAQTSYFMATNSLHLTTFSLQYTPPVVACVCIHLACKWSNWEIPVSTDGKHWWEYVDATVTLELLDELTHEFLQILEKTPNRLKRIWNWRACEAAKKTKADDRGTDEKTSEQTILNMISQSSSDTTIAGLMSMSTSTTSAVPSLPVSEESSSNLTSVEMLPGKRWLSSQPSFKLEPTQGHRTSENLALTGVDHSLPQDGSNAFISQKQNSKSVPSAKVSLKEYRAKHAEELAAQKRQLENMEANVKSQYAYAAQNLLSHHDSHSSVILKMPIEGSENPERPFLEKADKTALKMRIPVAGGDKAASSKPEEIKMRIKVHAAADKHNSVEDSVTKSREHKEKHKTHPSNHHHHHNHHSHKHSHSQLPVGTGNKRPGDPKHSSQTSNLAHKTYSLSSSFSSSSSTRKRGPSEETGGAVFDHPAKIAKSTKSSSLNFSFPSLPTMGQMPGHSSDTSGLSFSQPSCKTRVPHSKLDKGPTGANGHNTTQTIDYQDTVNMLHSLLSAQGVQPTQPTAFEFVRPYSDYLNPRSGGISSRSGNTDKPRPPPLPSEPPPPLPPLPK
How it was run: as §1

[2] = target: T1, CDK12 (aa686-1082)/Cyclin K complex (Homo sapiens, UniProt Q9NYV4); experiment: CDK12 kinase inhibition assay (Caliper/LabChip EZ Reader); format: biochemical; conditions: CDK12 (aa686-1082)/Cyclin K 50 nM, ATP 2 mM, 3 hr at 27° C.
T1 construct: CDK12 (aa686-1082)/Cyclin K complex
T1 sequence (Q9NYV4 686-1082): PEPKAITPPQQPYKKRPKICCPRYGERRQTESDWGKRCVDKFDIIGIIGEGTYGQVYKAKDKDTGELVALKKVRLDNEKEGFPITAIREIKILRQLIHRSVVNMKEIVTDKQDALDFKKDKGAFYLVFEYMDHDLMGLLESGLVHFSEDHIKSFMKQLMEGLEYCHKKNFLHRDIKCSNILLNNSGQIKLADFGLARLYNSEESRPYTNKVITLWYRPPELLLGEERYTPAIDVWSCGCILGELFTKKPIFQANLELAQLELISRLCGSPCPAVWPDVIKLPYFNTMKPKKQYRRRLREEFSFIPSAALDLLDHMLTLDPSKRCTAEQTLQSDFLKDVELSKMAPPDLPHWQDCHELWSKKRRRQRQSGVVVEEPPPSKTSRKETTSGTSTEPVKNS
T1 sequence (O75909 whole entry partner, the tested form may be a part): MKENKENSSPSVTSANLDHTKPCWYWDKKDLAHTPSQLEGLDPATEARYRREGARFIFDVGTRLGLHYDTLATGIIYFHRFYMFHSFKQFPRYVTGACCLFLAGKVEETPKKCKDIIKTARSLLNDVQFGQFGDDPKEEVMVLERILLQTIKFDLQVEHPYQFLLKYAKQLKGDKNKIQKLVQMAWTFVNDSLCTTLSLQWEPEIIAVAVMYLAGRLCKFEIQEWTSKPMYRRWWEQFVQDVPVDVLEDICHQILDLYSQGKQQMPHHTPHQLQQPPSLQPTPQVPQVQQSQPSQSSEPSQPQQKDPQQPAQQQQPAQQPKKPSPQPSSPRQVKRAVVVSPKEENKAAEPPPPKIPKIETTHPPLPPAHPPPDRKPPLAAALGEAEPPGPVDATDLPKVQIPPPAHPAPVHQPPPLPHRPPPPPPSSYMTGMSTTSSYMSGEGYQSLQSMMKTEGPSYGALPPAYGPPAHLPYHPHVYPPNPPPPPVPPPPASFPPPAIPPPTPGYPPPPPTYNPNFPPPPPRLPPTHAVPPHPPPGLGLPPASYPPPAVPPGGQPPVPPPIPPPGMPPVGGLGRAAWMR
How it was run: as §1

A673 cells = experiment: Inhibition of proliferation of A673 cells (CyQUANT, 72 hour); format: cell-based, human; conditions: read-out: Inhibition of Proliferation of A673 Cells (calculated IC50)
How it was run: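 Human Ewing's sarcoma A673 cells in DMEM + 10% FBS + 1 mM sodium pyruvate, 37 °C, 5% CO2. Compounds in 0.5-log serial dilutions, stated range 4 μM to […], for 72 h. Anti-proliferative effect read with CyQUANT per kit directions.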

HCC70 cells = experiment: Inhibition of proliferation of HCC70 cells (CyQUANT Direct, 72 hour); format: cell-based, human; conditions: read-out: Inhibition of Proliferation of HCC70 Cells (calculated IC50)
How it was run: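 Human triple-negative breast cancer cells grown in RPMI-1640 + 10% FBS at 37 °C, 5% CO2, treated with compounds from 4 μM to […] in 0.5 log steps. Proliferation over 72 h was read by CyQUANT Direct.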

| SMILES | IC50 (CDK2/Cyclin E1 complex) [nM] | IC50 [1] [nM] | IC50 (CDK9/Cyclin T1 complex) [µM] | IC50 [2] [nM] | IC50 (A673 cells) [nM] | IC50 (HCC70 cells) [nM] |
| --- | --- | --- | --- | --- | --- | --- |
| FC(F)(F)c1cnc(NC2CCCNC2)nc1-c1c[nH]c2c(-c3cn[nH]c3)cccc12 (centres unmarked) [Compound 170] | 200 to 5000 | < 20 | 0.2 to 5 | 20 to 200 | < 20 | < 100 |
| Clc1cnc(NC2CCCNC2)nc1-c1cnn2ccccc12 (centres unmarked) [Compound 104] | 200 to 5000 | 20 to 200 | 0.2 to 5 | 20 to 200 | 20 to 200 | 100 to 1000 |
| Cn1cc(-c2nc(NC3CCCNC3)ncc2C(F)(F)F)c2ccc(C#N)nc21 (centres unmarked) [Compound 273] |  |  |  |  | 200 to 5000 | 1000 to 5000 |
| Fc1cccc2c(-c3nc(NC4CCCNC4)ncc3Cl)c[nH]c12 (centres unmarked) [Compound 107] | 200 to 5000 | 20 to 200 | 0.2 to 5 | 20 to 200 | < 20 | 100 to 1000 |
| O=C1CCC(Nc2ncc(Cl)c(-c3c[nH]c4ccccc34)n2)CN1 (centres unmarked) [Compound 159] | 20 to 200 | 20 to 200 | 0.2 to 5 | 200 to 5000 | 200 to 5000 | 1000 to 5000 |
| CCc1cnc(NC2CCCNC2)nc1-c1c[nH]c2c(F)cccc12 (centres unmarked) [Compound 144] | 200 to 5000 | < 20 | 0.2 to 5 | 200 to 5000 | 20 to 200 | 100 to 1000 |
| CS(=O)(=O)c1ccc2c(-c3nc(NC4CCCNC4)ncc3C(F)(F)F)c[nH]c2c1 (centres unmarked) [Compound 199] | 200 to 5000 | < 20 | 0.2 to 5 | 200 to 5000 | < 20 | 100 to 1000 |
| O=C(c1ccc2c(-c3nc(NC4CCCNC4)ncc3C(F)(F)F)c[nH]c2c1)N1CCCC1 (centres unmarked) [Compound 278] | 200 to 5000 | 20 to 200 | ≥ 5 | 200 to 5000 | 20 to 200 | 100 to 1000 |
| CS(=O)(=O)c1cccc2c(-c3nc(NC4CCCNC4)ncc3C(F)(F)F)c[nH]c12 (centres unmarked) [Compound 141] | 200 to 5000 | < 20 | 0.2 to 5 | 200 to 5000 | < 20 | < 100 |
| N#CC1CCN(C(=O)c2ccc3c(-c4nc(NC5CCCNC5)ncc4C(F)(F)F)c[nH]c3c2)C1 (centres unmarked) [Compound 292] | 200 to 5000 | < 20 | 0.2 to 5 | 200 to 5000 | 20 to 200 | 100 to 1000 |
| Cc1[nH]ncc1-c1cccc2c(-c3nc(N[C@@H]4CCCNC4)ncc3C(F)(F)F)c[nH]c12 [Compound 175] | 200 to 5000 | < 20 | 0.02 to 0.2 | 200 to 5000 | < 20 | 1000 to 5000 |
| CCN1CCCC(Nc2ncc(C(F)(F)F)c(-c3c[nH]c4cc(C#N)ccc34)n2)C1 (centres unmarked) [Compound 284] | 200 to 5000 | < 20 | 0.2 to 5 | 200 to 5000 | 20 to 200 | 100 to 1000 |
| CN1CCN(c2cccc3c(-c4nc(NC5CCCNC5)ncc4C(F)(F)F)c[nH]c23)C1=O (centres unmarked) [Compound 176] | 200 to 5000 | < 20 | 0.2 to 5 | 200 to 5000 | < 20 | 100 to 1000 |
| CS(=O)(=O)c1c(C#N)ccc2c(-c3nc(N[C@H]4CCCNC4)ncc3C(F)(F)F)c[nH]c12 [Compound 232] | 200 to 5000 | < 20 | 0.2 to 5 | 200 to 5000 | < 20 | < 100 |
| CNC(=O)c1cccc2c(-c3nc(N[C@H]4CCCNC4)ncc3C(F)(F)F)c[nH]c12 [Compound 173] | 200 to 5000 | < 20 | 0.2 to 5 | 200 to 5000 | 20 to 200 | 100 to 1000 |
| FC(F)n1ccc(-c2ccc3c(-c4nc(NC5CCCNC5)ncc4C(F)(F)F)c[nH]c3c2)n1 (centres unmarked) [Compound 289] | 200 to 5000 | 20 to 200 | 0.2 to 5 | 200 to 5000 | 20 to 200 | 100 to 1000 |
| O=C(c1ccc2c(-c3nc(N[C@H]4CCCNC4)ncc3C(F)(F)F)c[nH]c2c1)N1CC[C@@H](O)C1 [Compound 250] | 200 to 5000 | < 20 | ≥ 5 | 200 to 5000 | 200 to 5000 | 1000 to 5000 |
| N#Cc1ccc2c(-c3nc(NC4CCCNC4)ncc3Cl)c[nH]c2c1 (centres unmarked) [Compound 161] | 200 to 5000 | < 20 | 0.2 to 5 | 200 to 5000 | < 20 | < 100 |
| CCS(=O)(=O)c1cccc2c(-c3nc(N[C@H]4CCCNC4)ncc3C(F)(F)F)c[nH]c12 [Compound 286] | 200 to 5000 | < 20 | 0.2 to 5 | 200 to 5000 | 200 to 5000 | 1000 to 5000 |
| CC1(C)CCC(Nc2ncc(C(F)(F)F)c(-c3c[nH]c4ccccc34)n2)CN1 (centres unmarked) [Compound 190] | 200 to 5000 | < 20 | 0.2 to 5 | 200 to 5000 | < 20 | 100 to 1000 |
| CCc1cnc(NC2CCCNC2)nc1-c1n[nH]c2nc(C#N)ccc12 (centres unmarked) [Compound 277] | 200 to 5000 | < 20 | 0.2 to 5 | 200 to 5000 | 20 to 200 | 100 to 1000 |
| CS(=O)(=O)c1c(C#N)ccc2c(-c3nc(NC4CCCNC4)ncc3Cl)c[nH]c12 (centres unmarked) [Compound 294] | 200 to 5000 | < 20 | 0.2 to 5 | 200 to 5000 |  | < 100 |
| CCc1cnc(NC2CCCNC2)nc1-c1c[nH]c2c(S(=O)(=O)C(C)C)cccc12 (centres unmarked) [Compound 356] | ≥ 5000 | 20 to 200 | ≥ 5 | ≥ 5000 |  | 100 to 1000 |
| CC(=O)NCc1cccc(-c2ccc3c(-c4nc(NC5CCCNC5)ncc4C(F)(F)F)c[nH]c3c2)c1 (centres unmarked) [Compound 338] | 200 to 5000 | 20 to 200 | 0.2 to 5 | 200 to 5000 |  | 100 to 1000 |
| CP(C)(=O)c1cccc2c(-c3nc(NC4CCCNC4)ncc3C(F)(F)F)c[nH]c12 (centres unmarked) [Compound 353] | 200 to 5000 | < 20 | ≥ 5 | 200 to 5000 |  | < 100 |
| OCc1cccc(-c2ccc3c(-c4nc(NC5CCCNC5)ncc4C(F)(F)F)c[nH]c3c2)n1 (centres unmarked) [Compound 316] | 200 to 5000 | < 20 | ≥ 5 | 200 to 5000 |  | 100 to 1000 |
| Oc1ncccc1-c1ccc2c(-c3nc(NC4CCCNC4)ncc3C(F)(F)F)c[nH]c2c1 (centres unmarked) [Compound 310] | 200 to 5000 | < 20 | ≥ 5 | 200 to 5000 |  | 100 to 1000 |
